Earlier results in US20080004230A1, “SAM Riboswitch and Uses Thereof” (priority 2006, published 2008).
Where two headings read alike, the source gives them in different places.

Key:
[1] = target: SAM-I riboswitch RNA (yitJ homolog from B. subtilis); conditions: read-out: binding affinity of the analog for the riboswitch RNA
SAM-I riboswitch = conditions: binding preference of the riboswitch, SAM relative to SAH

Structure (SMILES): Nc1ncnc2c1ncn2[C@@H]1O[C@H](CSC[C@H](N)C(=O)O)[C@@H](O)[C@H]1O [SAC, S-adenosylcysteine]
- Kd ([1]; analog with one less side chain methylene group): ~30 µM

Structure (SMILES): Nc1ncnc2c1ncn2[C@@H]1O[C@H](CSCC[C@H](N)C(=O)O)[C@@H](O)[C@H]1O [SAH, S-adenosylhomocysteine]
- Kd [1]: 0.4 µM

Structure (SMILES): C[S+](CC[C@H](N)C(=O)O)C[C@H]1O[C@@H](n2cnc3c(N)ncnc32)[C@H](O)[C@@H]1O (stereo partly drawn) [SAM, S-adenosylmethionine]
- preference for SAM over SAH (SAM-I riboswitch): 100 fold
